Drawing on US11965039B2, “Compstatin analogues and their medical uses” (priority 2018, dated 2024), this text covers IC50 for 14 compounds.

Starred links: 1 amine or outer side, 2 acyl side, 3 side chain; linkers in the order of their positions; H or OH if unused. Positions of bridges follow the written chain, without caps; N, C: chain ends. Non-standard residues stand in square brackets, D forms with d. Residues, ends and D or L forms follow the SMILES beside them. Groups on a side chain read outwards from the residue. *: point of attachment. Trp(1-Me) = Cn1cc(C[C@H](N)C(=O)O)c2ccccc21; C18 diacid = O=C(O)CCCCCCCCCCCCCCCCC(=O)*; C16 diacid = O=C(O)CCCCCCCCCCCCCCC(=O)*; γGlu = O=C(O)[C@H](CCC(=O)[*:2])N[*:1]; Nva = CCC[C@H](N)C(=O)O; AEEA = NCCOCCOCC(=O)O; Sar = CNCC(=O)O A value given as a limit tells only on which side of the number the result lay.

For orientation: IC50 means the concentration needed to halve the response being measured.

In one experiment the test system is classical complement pathway. Put plainly: In vitro haemolysis assay (inhibition of classical complement pathway). Particulars: Table 5, different residues at position 3 of Ac-IC(1)XWQDWGEHRC(1)T-NH2; read-out: IC50, CP hemolysis. The experiment is classed as cell-based, human. An outline of the steps:
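Compound dilutions preincubated 15 min at room temperature with diluted human serum (titrated per batch for 70-90% maximal haemolysis), then antibody-sensitized sheep RBC (10^7/well) added for 30 min at 37 °C in Tris/casein buffer, pH 7.4. Stopped with EDTA; haemolysis read at 405 nm; IC50 by 4PL fit.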
For `CCC[C@@H]1NC(=O)[C@@H](NC(=O)[C@@H](NC(C)=O)[C@@H](C)CC)CSSC[C@@H](C(=O)N[C@H](C(N)=O)[C@@H](C)O)NC(=O)[C@H](CCCNC(=N)N)NC(=O)[C@H](Cc2c[nH]cn2)NC(=O)[C@H](CCC(=O)O)NC(=O)CNC(=O)[C@H](Cc2c[nH]c3ccccc23)NC(=O)[C@H](CC(=O)O)NC(=O)[C@H](CCC(N)=O)NC(=O)[C@H](Cc2c[nH]c3ccccc23)NC1=O` [Norvaline, Ac-IC(1)XWQDWGEHRC(1)T-NH2, reference compound] (Ac-IC[Nva]WQDWGEHRCT-NH2; disulfide 2-12), the IC50 was greater than 1 µM.

Still in this experiment, the particulars now being: human serum, sensitized sheep red blood cells; Table 3, cells printed in μM; read-out: IC50, inhibition of hemolysis.
In the case of `CC[C@H](C)[C@H](N)C(=O)N[C@H]1CSSC[C@@H](C(=O)N[C@H](C(N)=O)[C@@H](C)O)NC(=O)[C@H](CCCN=C(N)N)NC(=O)[C@H](Cc2cnc[nH]2)NC(=O)[C@H](Cc2cnc[nH]2)NC(=O)CNC(=O)[C@H](Cc2c[nH]c3ccccc23)NC(=O)[C@H](CC(=O)O)NC(=O)[C@H](CCC(N)=O)NC(=O)[C@H](C(C)C)NC(=O)[C@H](C(C)C)NC1=O` [Compstatin], the IC50 was greater than 5 µM.

The same experiment, now with this note: human serum, sensitized sheep red blood cells; Table 3, given as upper bounds; read-out: IC50, inhibition of hemolysis.
Consider `CC[C@H](C)[C@@H]1NC(=O)[C@@H](NC(=O)CN(C)C(=O)[C@H](N)Cc2ccc(O)cc2)CSSC[C@@H](C(=O)N[C@H](C(=O)N[C@@H](CCC(=O)O)C(=O)N[C@@H](C)C(N)=O)[C@@H](C)O)NC(=O)[C@H](CCCNC(=N)N)NC(=O)[C@H](Cc2c[nH]cn2)NC(=O)[C@H](CCC(=O)O)NC(=O)CNC(=O)[C@H](Cc2c[nH]c3ccccc23)NC(=O)[C@H](CC(=O)O)NC(=O)[C@H](CCC(N)=O)NC(=O)[C@H](Cc2cn(C)c3ccccc23)NC1=O` [Compound 91] (H-[dY][Sar]CI[Trp(1-Me)]QDWGEHRCTEA-NH2; disulfide 3-13), for which the IC50 is less than 0.1 µM.
Same read-out and setting: then `CC[C@H](C)[C@@H]1NC(=O)[C@@H](NC(=O)[C@H](Cc2ccc(O)cc2)NC(=O)[C@H](C)NC(=O)[C@H](CO)NC(=O)[C@H](CO)NC(=O)[C@H](CCC(=O)O)NC(C)=O)CSSC[C@@H](C(=O)N[C@H](C(N)=O)[C@@H](C)O)NC(=O)[C@H](CCCNC(=N)N)NC(=O)[C@H](Cc2c[nH]cn2)NC(=O)[C@H](CCC(=O)O)NC(=O)CNC(=O)[C@H](Cc2c[nH]c3ccccc23)NC(=O)[C@H](CC(=O)O)NC(=O)[C@H](CCC(N)=O)NC(=O)[C@H](Cc2c[nH]c3ccccc23)NC1=O` [Compound 10] (Ac-ESSAYCIWQDWGEHRCT-NH2; disulfide 6-16), with less than 0.1 µM.
On the same count and under the same terms, then `CC[C@H](C)[C@H](NC(C)=O)C(=O)N[C@H]1CSSC[C@@H](C(=O)N[C@H](C(=O)N[C@@H](CCC(=O)O)C(=O)NCC(=O)N[C@@H](CCCCNC(=O)CC[C@H](NC(=O)CCCCCCCCCCCCCCC(=O)O)C(=O)O)C(N)=O)[C@@H](C)O)NC(=O)[C@H](CCCNC(=N)N)NC(=O)[C@H](Cc2c[nH]cn2)NC(=O)[C@H](CCC(=O)O)NC(=O)CNC(=O)[C@H](Cc2c[nH]c3ccccc23)NC(=O)[C@H](CC(=O)O)NC(=O)[C@H](CCC(N)=O)NC(=O)[C@H](Cc2c[nH]c3ccccc23)NC(=O)[C@H]([C@@H](C)CC)NC1=O` [Compound 92] (Ac-ICIWQDWGEHRCTEGK([γGlu-C16 diacid])-NH2; disulfide 2-12), with less than 1 µM; and `CC[C@H](C)[C@@H]1NC(=O)[C@@H](NC(=O)[C@H](Cc2ccc(O)cc2)NC(=O)[C@H](CCC(=O)O)NC(=O)[C@H](CO)NC(C)=O)CSSC[C@@H](C(=O)N(C)CC(=O)N[C@@H](CCC(=O)O)C(=O)NCC(=O)N[C@@H](C)C(=O)N[C@@H](CCCCNC(=O)CC[C@H](NC(=O)CNC(=O)CC[C@H](NC(=O)CCCCCCCCCCCCCCCCC(=O)O)C(=O)O)C(=O)O)C(N)=O)NC(=O)[C@H](CCCNC(=N)N)NC(=O)[C@H](Cc2c[nH]cn2)NC(=O)[C@H](CCC(=O)O)NC(=O)CNC(=O)[C@H](Cc2c[nH]c3ccccc23)NC(=O)[C@H](CC(=O)O)NC(=O)[C@H](CCC(N)=O)NC(=O)[C@H](Cc2cn(C)c3ccccc23)NC1=O` [Compound 112] (Ac-SEYCI[Trp(1-Me)]QDWGEHRC[Sar]EGAK([γGlu-Gly-γGlu-C18 diacid])-NH2; disulfide 4-14), with less than 0.5 µM.
On the same count and under the same terms, then `CC[C@H](C)[C@@H]1NC(=O)[C@@H](NC(=O)[C@@H](NC(=O)[C@H](CCC(=O)O)NC(=O)CNC(=O)[C@H](CCC(=O)O)NC(C)=O)[C@@H](C)CC)CSSC[C@@H](C(=O)N[C@@H](CCC(=O)O)C(=O)NCC(=O)N[C@@H](CCC(=O)O)C(N)=O)NC(=O)[C@H](CCCNC(=N)N)NC(=O)[C@H](Cc2c[nH]cn2)NC(=O)[C@H](CCC(=O)O)NC(=O)CNC(=O)[C@H](Cc2c[nH]c3ccccc23)NC(=O)[C@H](CC(=O)O)NC(=O)[C@H](CCC(N)=O)NC(=O)[C@H](Cc2c[nH]c3ccccc23)NC1=O` [Compound 35] (Ac-EGEICIWQDWGEHRCEGE-NH2; disulfide 5-15), with less than 0.5 µM; and `CC[C@H](C)[C@@H]1NC(=O)[C@@H](NC(=O)[C@@H](NC(=O)[C@H](CCC(=O)O)NC(C)=O)[C@@H](C)CC)CSSC[C@@H](C(=O)N[C@H](C(=O)N[C@@H](CCC(=O)O)C(=O)NCC(=O)N[C@@H](CCC(=O)O)C(N)=O)[C@@H](C)O)NC(=O)[C@H](CCCNC(=N)N)NC(=O)[C@H](Cc2c[nH]cn2)NC(=O)[C@H](CCC(=O)O)NC(=O)CNC(=O)[C@H](Cc2c[nH]c3ccccc23)NC(=O)[C@H](CC(=O)O)NC(=O)[C@H](CCC(N)=O)NC(=O)[C@H](Cc2c[nH]c3ccccc23)NC1=O` [Compound 34] (Ac-EICIWQDWGEHRCTEGE-NH2; disulfide 3-13), with less than 0.25 µM; and `CC[C@H](C)[C@@H]1NC(=O)[C@@H](NC(=O)[C@H](Cc2ccccc2)NC(=O)[C@H](CCC(=O)O)NC(=O)[C@H](CO)NC(C)=O)CSSC[C@@H](C(=O)N(C)CC(=O)N[C@@H](CCC(=O)O)C(=O)NCCOCCOCC(=O)NCCOCCOCC(=O)N[C@@H](CCCCNC(=O)CC[C@H](NC(=O)CNC(=O)CC[C@H](NC(=O)CCCCCCCCCCCCCCCCC(=O)O)C(=O)O)C(=O)O)C(N)=O)NC(=O)[C@H](CCCNC(=N)N)NC(=O)[C@H](Cc2c[nH]cn2)NC(=O)[C@H](CCC(=O)O)NC(=O)CN(C)C(=O)[C@H](Cc2c[nH]c3ccccc23)NC(=O)[C@H](CC(=O)O)NC(=O)[C@H](CCC(N)=O)NC(=O)[C@H](Cc2cn(C)c3ccccc23)NC1=O` [Compound 144, Ac-SEFC(1)I[1-Me-Trp]QDW[Sar]EHRC(1)[Sar]E[Peg3][Peg3]-K([17-carboxy-heptadecanoyl][γGlu]G[γGlu])-NH2] (Ac-SEFCI[Trp(1-Me)]QDW[Sar]EHRC[Sar]E[AEEA][AEEA]K([γGlu-Gly-γGlu-C18 diacid])-NH2; disulfide 4-14), with less than 0.1 µM.
With `CC[C@H](C)[C@@H]1NC(=O)[C@@H](NC(=O)[C@H](Cc2ccccc2)NC(=O)[C@H](CCC(=O)O)NC(=O)[C@H](CO)NC(C)=O)CSSC[C@@H](C(=O)N(C)CC(=O)N[C@@H](CCC(=O)O)C(=O)N[C@@H](CCCCN)C(=O)N[C@@H](CCC(=O)NCC(=O)NCC(=O)NCC(=O)N[C@@H](CCCCNC(=O)CC[C@H](NC(=O)CNC(=O)CC[C@H](NC(=O)CCCCCCCCCCCCCCCCC(=O)O)C(=O)O)C(=O)O)C(N)=O)C(=O)O)NC(=O)[C@H](CCCNC(=N)N)NC(=O)[C@H](Cc2c[nH]cn2)NC(=O)[C@H](CCC(=O)O)NC(=O)CNC(=O)[C@H](Cc2c[nH]c3ccccc23)NC(=O)[C@H](CC(=O)O)NC(=O)[C@H](CCC(N)=O)NC(=O)[C@H](Cc2cn(C)c3ccccc23)NC1=O` [Compound 132] (Ac-SEFCI[Trp(1-Me)]QDWGEHRC[Sar]EK[γGlu]GGGK([γGlu-Gly-γGlu-C18 diacid])-NH2; disulfide 4-14), the IC50 is less than 0.1 µM.
The same measure, in the same setting: then `CC[C@H](C)[C@@H]1NC(=O)[C@@H](NC(=O)[C@H](Cc2ccc(O)cc2)NC(=O)[C@H](C)NC(=O)[C@H](CO)NC(=O)CNC(=O)[C@H](CCC(=O)O)NC(C)=O)CSSC[C@@H](C(=O)N[C@H](C(=O)N[C@@H](CCC(=O)O)C(N)=O)[C@@H](C)O)NC(=O)[C@H](CCCNC(=N)N)NC(=O)[C@H](Cc2c[nH]cn2)NC(=O)[C@H](CCC(=O)O)NC(=O)CNC(=O)[C@H](Cc2c[nH]c3ccccc23)NC(=O)[C@H](CC(=O)O)NC(=O)[C@H](CCC(N)=O)NC(=O)[C@H](Cc2cn(C)c3ccccc23)NC1=O` [Compound 59] (Ac-EGSAYCI[Trp(1-Me)]QDWGEHRCTE-NH2; disulfide 6-16), with less than 0.1 µM.
On the same count and under the same terms, then `CC[C@H](C)[C@@H]1NC(=O)[C@@H](NC(=O)[C@H](Cc2ccccc2)NC(=O)[C@H](CCC(=O)O)NC(=O)[C@H](CO)NC(C)=O)CSSC[C@@H](C(=O)N(C)CC(=O)N[C@@H](CCC(=O)O)C(=O)N[C@@H](C)C(N)=O)NC(=O)[C@H](CCCCN)NC(=O)[C@H](Cc2c[nH]cn2)NC(=O)[C@H](CCC(=O)O)NC(=O)CNC(=O)[C@H](Cc2c[nH]c3ccccc23)NC(=O)[C@H](CC(=O)O)NC(=O)[C@H](CCC(N)=O)NC(=O)[C@H](Cc2cn(C)c3ccccc23)NC1=O` [Compound 86] (Ac-SEFCI[Trp(1-Me)]QDWGEHKC[Sar]EA-NH2; disulfide 4-14), with less than 0.1 µM; and `CC[C@H](C)[C@@H]1NC(=O)[C@@H](NC(=O)[C@H](Cc2ccccc2)NC(C)=O)CSSC[C@@H](C(=O)N[C@H](C(N)=O)[C@@H](C)O)NC(=O)[C@H](CCCNC(=N)N)NC(=O)[C@H](Cc2c[nH]cn2)NC(=O)[C@H](CCC(=O)O)NC(=O)CNC(=O)[C@H](Cc2c[nH]c3ccccc23)NC(=O)[C@H](CC(=O)O)NC(=O)[C@H](CCC(N)=O)NC(=O)[C@H](Cc2c[nH]c3ccccc23)NC1=O` [Compound 23] (Ac-FCIWQDWGEHRCT-NH2; disulfide 2-12), with less than 0.1 µM.
On the same count and under the same terms, then `CC[C@H](C)[C@@H]1NC(=O)[C@@H](NC(=O)CN(C)C(=O)[C@H](CCC(=O)O)NC(=O)CNC(C)=O)CSSC[C@@H](C(=O)N[C@H](C(=O)N[C@@H](CCC(=O)O)C(=O)N[C@@H](C)C(N)=O)[C@@H](C)O)NC(=O)[C@H](CCCNC(=N)N)NC(=O)[C@H](Cc2c[nH]cn2)NC(=O)[C@H](CCC(=O)O)NC(=O)CNC(=O)[C@H](Cc2c[nH]c3ccccc23)NC(=O)[C@H](CC(=O)O)NC(=O)[C@H](CCC(N)=O)NC(=O)[C@H](Cc2cn(C)c3ccccc23)NC1=O` [Compound 88] (Ac-GE[Sar]CI[Trp(1-Me)]QDWGEHRCTEA-NH2; disulfide 4-14), with less than 0.1 µM.
